In this assay the test system is Wnt pathway. Put plainly: Wnt pathway Super-top flash (STF) reporter gene assay (primary assay). It counts as cell-based. Conditions: HEK293 STF cells co-cultured 1:1 with L Wnt3A cells; 48 h incubation; inhibition of luminescence signaling. The method, then: The primary assay is based on Wnt pathway Super-top flash (STF) reporter gene assay:
HEK293 STF stable clones (HEK293 cells stably transfected with “Super-Top Flash” TCF-luciferase reporter plasmid) were kept in complete culture medium (DMEM with 4 mM L-Gln, 1.5 g/L sodium bicarbonate and 4.5 g/L glucose containing 6 μg/mL Blasticidin and 10% FBS). L Wnt3A cells (CRL-2647, ATCC) were kept in DMEM (Gibico) containing 10% FBS (Hyclone). HEK293 STF and L Wnt3A cells were harvested when 90% confluence and cell suspension was mixed with a fixed ratio of 1:1 (HEK293 STF: L Wnt3A). 100 μL/well of mixed cells suspension was added to the 96-well-plate with final cell concentration of 12,000 cells/well and then cultured for an additional 24 hours before adding compounds.
Compounds were diluted in DMSO in sequence and then diluted with DMEM medium. 20 μL medium containing compound was added to the cells according to the pre-setting dose. Cell plates were incubated at 37° C. for an additional 48 hours.
50 μL luciferase solution (Bright-Glo, Promega) was added to each well […] the 48 h incubation. The plates were incubated at room temperature for 5 min under gentle shaking. Luminescence signaling was measured with a plate reader (PHERAstar FS, BMG). The IC50 (potency) of compounds was calculated based on the inhibition of luminescence signaling.

This is an account of results in patent US10450300B2, “Wnt signaling pathway inhibitors and therapeutic applications thereof” (Suzhou Yunxuan Yiyao Keji Youxian Gongsi, priority 2015, dated 2019).

Regarding `Cc1cc(-c2ccc(CNc3cc(-c4ccc5ccccc5c4)nc(N4CCCC4)n3)cc2)ccn1` [Compound A-141], the IC50 was determined as 3000 nM.

Consider `Cc1cc(-c2ncc(CNc3ncnc(N4CCc5ncccc5C4)c3F)cc2C#N)ccn1` [Compound A-56], for which the IC50 was 1 nM.

For `Cc1cc(-c2ccc(CNc3ncnc(-c4ccc5ccccc5c4)c3F)cc2)ccn1` [Compound A-1, 5-fluoro-N-(4-(2-methylpyridin-4-yl)benzyl)-6-(naphthalen-2-yl)pyrimidin-4-amine], the IC50 was 1.4 nM.

As for `Cc1cc(-c2ncc(CNc3ncnc(N4CCc5ncccc5C4)c3F)cc2F)ccn1` [Compound A-45], the IC50 stood at 0.4 nM.

Turning to `Fc1c(-c2ccc3ncccc3c2)ccnc1NCc1ccc(-n2ccnc2)cc1` [Compound A-105], the IC50 turned out to be 5.2 nM.

Turning to `COc1cncc(-c2ccnc(NCc3cnc(-c4ccnc(C)c4)c(C#N)c3)c2F)c1` [Compound A-129], the IC50 came to 0.4 nM.

Consider `Cc1cc(-c2ccc(CNc3ccnc(N4CCc5ncccc5C4)n3)cc2)ccn1` [Compound A-158], for which the IC50 stood at 3000 nM.

`Cc1cc(-c2ncc(CNc3ncnc(N4CCNC(=O)C4)c3F)cc2F)ccn1` [Compound A-80]: the IC50 stood at 768 nM.

On to `COc1cc(CNc2nccc(-c3cc4cccnc4cn3)c2F)cnc1-c1ccnc(C)c1` [Compound A-122], for which the IC50 was 0.13 nM.

`Cc1cc(-c2ccc(CNc3nsc(-c4ccc5ncccc5c4)n3)cn2)ccn1` [Compound A-190]: the IC50 is 0.4 nM.

With `Cc1cc(-c2ncc(CNc3nccc(-c4cc5cccnc5cn4)c3F)cc2F)ccn1` [Compound A-103], the IC50 came out at 0.12 nM.

Turning to `Cc1cc(-c2ncc(CNc3ncnc(N4Cc5cccnc5C4)c3F)cc2F)ccn1` [Compound A-88], the IC50 amounted to 7.7 nM.

`COc1cc(CNc2nccc(-c3cc4cccnc4cn3)n2)cnc1-c1ccnc(C)c1` [Compound A-182]: the IC50 amounted to 0.64 nM.

On to `N#Cc1cnc2cc(CNc3ncnc(N4CCc5ncccc5C4)c3F)ccc2c1` [Compound A-72], for which the IC50 came to 0.64 nM.

Take `Cc1cc(-c2ncc(CNc3nccc(-c4ccc5ncccc5n4)c3F)cc2C#N)ccn1` [Compound A-126]: the IC50 turned out to be 0.04 nM.

As for `Cc1cc(-c2ncc(CNc3nccc(-c4ccc5ncccc5c4)n3)cc2C)ccn1` [Compound A-170], the IC50 worked out at 3.7 nM.

With `Cc1cc(-c2ccc(CN(C)c3ncnc(-c4ccc5ccccc5c4)c3F)cc2)ccn1` [Compound A-27, 5-fluoro-N-methyl-N-(4-(2-methylpyridin-4-yl)benzyl)-6-(naphthalen-2-yl)pyrimidin-4-amine], the IC50 is 937 nM.

As for `Cc1cc(-c2ncc(CNc3nccc(-c4cncc(F)c4)c3F)cc2F)ccn1` [Compound A-115], the IC50 was found to be 7 nM.

`Cc1cc(-c2ncc(CNc3nccc(-c4ccc5ncccc5c4)c3F)cc2F)ccn1` [Compound A-98]: the IC50 was found to be 0.06 nM.

With `Cc1cc(-c2ccc(CNc3ncnc(N4CCc5ncccc5C4)c3F)cn2)ccn1` [Compound A-32], the half-maximal inhibitory concentration (IC50) was 2 nM.

Turning to `Cc1cc(-c2ncc(CNc3ncnc(N4CCn5ncnc5C4)c3F)cc2F)ccn1` [Compound A-58], the IC50 came to 34 nM.

For `Cc1cc(-c2ccc(CNc3nsc(-c4ccc5ncccc5c4)n3)cc2)ccn1` [Compound A-186], the IC50 is 0.27 nM.

With `Cc1cc(-c2ncc(CNc3nsc(-c4ccc5ncccc5c4)n3)cc2C#N)ccn1` [Compound A-194], the IC50 came out at 0.09 nM.

On to `Cc1cc(-c2ncc(CNc3ncnc(N4CCS(=O)(=O)CC4)c3F)cc2F)ccn1` [Compound A-79], for which the IC50 worked out at 416 nM.

Regarding `CS(=O)(=O)CCNc1ccc(CNc2nccc(-c3ccc4ncccc4c3)c2F)cn1` [Compound A-112], the IC50 turned out to be 10 nM.

Turning to `Cc1cc(-c2ccc(CNc3nc(N4CCc5ncccc5C4)ncc3F)cc2)ccn1` [Compound A-161], the IC50 turned out to be 3000 nM.

In the case of `Cc1cc(-c2ncc(CNc3nsc(-c4ccc5ncccc5c4)n3)cc2F)ccn1` [Compound A-192], the IC50 was 0.1 nM.

With `Cc1cn(-c2ccc(CNc3nccc(-c4ccc5ncccc5c4)c3F)cc2)cn1` [Compound A-107], the IC50 amounted to 16 nM.

With `Cn1nc(CNc2ncnc(-c3ccc4ncccc4c3)c2F)ccc1=O` [Compound A-83], the IC50 stood at 3000 nM.

In the case of `COc1cc(CNc2nsc(-c3cc4cccnc4cn3)n2)cnc1-c1ccnc(C)c1` [Compound A-196, N-((3-methoxy-2′-methyl-2,4′-bipyridin-5-yl)methyl)-5-(1,7-naphthyridin-6-yl)-1,2,4-thiadiazol-3-amine], the IC50 amounted to 0.78 nM.

On to `Cc1cc(-c2ccc(CNc3cc(-c4ccc5ncccc5c4)ccn3)cc2)ccn1` [Compound A-166], for which the IC50 was 3.6 nM.

As for `Cc1cc(-c2ccc(CNc3ncnc(-c4ccc5cccnc5c4)c3F)cc2)ccn1` [Compound A-3], the IC50 was found to be 36 nM.

As for `Cc1cc(-c2ncc(CNc3nsc(-c4cc5cccnc5cn4)n3)cc2C#N)ccn1` [Compound A-197], the IC50 is 0.31 nM.

As to `CS(=O)(=O)CCNc1ccc(CNc2nsc(-c3ccc4ncccc4c3)n2)cn1` [Compound A-189], the IC50 is 3000 nM.

On to `Cc1cc(-c2ncc(CNc3nccc(-c4ccc5nonc5c4)c3F)cc2F)ccn1` [Compound A-114], for which the IC50 was determined as 8 nM.

In the case of `Fc1c(NCc2ccc(-c3ccncc3)cc2)ncnc1-c1ccc2ccccc2c1` [Compound A-38], the IC50 was determined as 5 nM.

Turning to `Cc1cc(-c2ncc(CNc3ncnc(-c4ccc5ncsc5c4)c3F)cc2C)ccn1` [Compound A-51], the IC50 turned out to be 1 nM.

Turning to `Cc1cc(-c2ccc(CNc3cccc(-c4ccc5ccccc5c4)n3)cc2)ccn1` [Compound A-150], the IC50 worked out at 250 nM.

On to `CCNc1nc(NCc2ccc(-c3ccnc(C)c3)cc2)cc(-c2ccc3ccccc3c2)n1` [Compound A-142], for which the IC50 stood at 3000 nM.

For `Cc1cc(-c2ccc(CNc3ncnc(-c4ccc(Cl)cc4)c3F)cc2)ccn1` [Compound A-20], the IC50 is 211 nM.

`Cc1cc(-c2ccc(CNc3ncnc(-c4cccc(Cl)c4)c3F)cc2)ccn1` [Compound A-19]: the IC50 amounted to 14 nM.

With `Cc1cc(-c2ncc(CNc3nccc(-c4cc5cccnc5cn4)n3)cc2C#N)ccn1` [Compound A-183, 5-((4-(1,7-naphthyridin-6-yl)pyrimidin-2-ylamino)methyl)-2′-methyl-2,4′-bipyridine-3-carbonitrile], the IC50 is 2.1 nM.

`Cc1cc(-c2ccc(CNc3ncnc(-c4ccc(Cl)c(Cl)c4)c3F)cc2)ccn1` [Compound A-21]: the IC50 was 14 nM.

Consider `Cc1cc(-c2ccc(CNc3nccc(-c4ccc5ncccc5c4)n3)cc2)ccn1` [Compound A-154], for which the IC50 was determined as 1.2 nM.

As to `Cc1cc(-c2ccc(CNc3ncnc(-c4ccc5nccnc5c4)c3F)cc2)ccn1` [Compound A-8], the IC50 came out at 1.5 nM.

Regarding `Cc1cc(-c2ccc(CNc3ncnc(N4CCc5c(Br)cccc5C4)c3F)cc2)ccn1` [Compound A-25], the IC50 is greater than 1000 nM.

For the compound `Cc1cc(-c2ncc(CNc3nccc(-c4ccc5ncnn5c4)c3F)cc2F)ccn1` [Compound A-123], the IC50 was found to be 0.12 nM.

Take `Cc1cc(-c2ccc(CNc3ncnc(N4CCc5ccccc5C4C)c3F)cc2)ccn1` (stereo not shown) [Compound A-70]: the half-maximal inhibitory concentration (IC50) is 147 nM.

`N#Cc1ccc2cc(CNc3nccc(-c4ccc5ncccc5c4)c3F)cnc2c1` [Compound A-119]: the IC50 worked out at 10 nM.

With `Cc1cc(-c2ncc(CNc3nccc(-c4ccc5nccnc5c4)c3F)cc2F)ccn1` [Compound A-124], the IC50 came to 0.12 nM.

Turning to `Cc1cc(-c2ncc(CNc3ncnc(N4CCc5ncncc5C4)c3F)cc2F)ccn1` [Compound A-62], the IC50 was 6.2 nM.

With `N#Cc1ccc2cc(CNc3ncnc(N4CCc5ncccc5C4)c3F)cnc2c1` [Compound A-76], the IC50 worked out at 1.3 nM.

For `Cc1cc(-c2ncc(CNc3ncnc(-c4ccc5ncsc5c4)c3F)cc2F)ccn1` [Compound A-49], the IC50 is 0.39 nM.

`Cc1cc(-c2ccc(CNc3ncnc(-c4ccc5ncccc5c4)c3F)cc2)ccn1` [Compound A-4]: the IC50 came to 0.3 nM.

Regarding `Cc1cc(-c2ncc(CNc3nccc(-c4ccc(=O)n(C)c4)c3F)cc2F)ccn1` [Compound A-117], the IC50 was 2 nM.

Regarding `Cc1cc(-c2ncc(CNc3nccc(-c4cc5cccnc5cn4)c3F)cc2C#N)ccn1` [Compound A-121, 5-((3-fluoro-4-(1,7-naphthyridin-6-yl)pyridin-2-ylamino)methyl)-2′-methyl-2,4′-bipyridine-3-carbonitrile], the IC50 amounted to 0.06 nM.

As for `Cc1cc(-c2ccc(CNc3ncnc(-c4ccc5ccccc5c4)c3C)cc2)ccn1` [Compound A-143], the IC50 was determined as 2000 nM.

Consider `Cc1cc(-c2ccc(CNc3cc(-c4ccc5ccccc5c4)nc(N)n3)cc2)ccn1` [Compound A-153], for which the IC50 worked out at 3000 nM.

As for `N#Cc1ccc2nc(CNc3nccc(-c4ccc5ncccc5c4)n3)ccc2c1` [Compound A-178], the IC50 amounted to 200 nM.

For the compound `N#Cc1ccc2cc(CNc3nsc(-c4ccc5ncccc5c4)n3)cnc2c1` [Compound A-199, 3-((5-(quinolin-6-yl)-1,2,4-thiadiazol-3-ylamino)methyl)quinoline-7-carbonitrile], the IC50 turned out to be 0.17 nM.

For `Cc1cc(-c2ncc(CNc3ncnc(N4CCn5nccc5C4)c3F)cc2F)ccn1` [Compound A-87], the IC50 was found to be 0.51 nM.
